Patent US9725465B2, “Biaryl acetamide compounds and methods of use thereof” (Ambit Biosciences Corporation, priority 2013, dated 2017)
Counter-ions that a name gives are not always drawn.

These compounds were tested against FLT3-ITD (Homo sapiens (Human), UniProt P36888, INS600HVDFREYEYD) (assay: pFLT3 MSD assay, Ba/F3 FLT3-ITD). Details: Ba/F3 FLT3-ITD cells, 2 hours, read-out: BaF3-FLT3-ITD pFlt3 IC50.
Format: cell-based

Sequence of FLT3-ITD (P36888 other isoform, or with tags, fused parts or gaps limits assumed, stated change not applied): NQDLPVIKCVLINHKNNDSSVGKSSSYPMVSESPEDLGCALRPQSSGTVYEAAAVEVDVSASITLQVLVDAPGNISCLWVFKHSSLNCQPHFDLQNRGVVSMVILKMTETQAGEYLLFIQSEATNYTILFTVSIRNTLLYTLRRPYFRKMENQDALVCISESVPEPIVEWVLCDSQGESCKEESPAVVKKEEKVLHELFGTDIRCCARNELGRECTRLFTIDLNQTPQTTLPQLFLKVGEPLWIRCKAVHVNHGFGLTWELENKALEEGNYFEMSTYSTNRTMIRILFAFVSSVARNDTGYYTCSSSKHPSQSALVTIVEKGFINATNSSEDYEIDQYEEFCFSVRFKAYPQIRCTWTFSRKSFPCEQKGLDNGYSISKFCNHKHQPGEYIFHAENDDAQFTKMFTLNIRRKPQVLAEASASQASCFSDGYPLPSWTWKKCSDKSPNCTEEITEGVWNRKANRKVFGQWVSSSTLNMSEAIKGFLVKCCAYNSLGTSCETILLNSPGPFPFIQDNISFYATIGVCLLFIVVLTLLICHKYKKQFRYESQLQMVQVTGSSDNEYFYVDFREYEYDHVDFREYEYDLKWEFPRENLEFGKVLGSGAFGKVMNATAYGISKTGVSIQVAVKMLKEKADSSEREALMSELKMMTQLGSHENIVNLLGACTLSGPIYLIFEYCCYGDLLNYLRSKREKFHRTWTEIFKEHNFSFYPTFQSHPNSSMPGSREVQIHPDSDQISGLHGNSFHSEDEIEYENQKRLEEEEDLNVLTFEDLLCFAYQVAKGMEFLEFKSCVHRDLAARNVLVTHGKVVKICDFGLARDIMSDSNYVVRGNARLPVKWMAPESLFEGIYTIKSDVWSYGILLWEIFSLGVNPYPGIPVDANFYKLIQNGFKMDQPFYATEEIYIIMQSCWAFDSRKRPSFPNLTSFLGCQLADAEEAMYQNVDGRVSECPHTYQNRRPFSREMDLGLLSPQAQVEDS

| Structure (SMILES) | IC50 [nM] |
| --- | --- |
| O=C(Cc1ccc(-c2cnc3[nH]ncc3c2)cc1)Nc1cc(C2(C(F)(F)F)CC2)on1 [Example 15, 2-(4-(1H-pyrazolo[3,4-b]pyridin-5-yl)phenyl)-N-(5-(1-(trifluoromethyl)cyclopropyl)isoxazol-3-yl)acetamide] | < 10 |
| O=C(Cc1ccc(-c2cnc3[nH]ccc3c2)cc1)Nc1cc(C2(C(F)(F)F)CC2)on1 [Example 18, 2-(4-(1H-pyrrolo[2,3-b]pyridin-5-yl)phenyl)-N-(5-(1-(trifluoromethyl)cyclopropyl)isoxazol-3-yl)acetamide] | < 10 |
| COc1cc(OC)c2cc(-c3ccc(CC(=O)Nc4cc(C5(C(F)(F)F)CC5)on4)c(F)c3)cnc2c1 [Example 36, 2-(4-(5,7-dimethoxyquinolin-3-yl)-2-fluorophenyl)-N-(5-(1-(trifluoromethyl)cyclopropyl)isoxazol-3-yl)acetamide] | < 10 |
| COc1cc2ncc(-c3ccc(CC(=O)Nc4cc(C5(C(F)(F)F)CC5)on4)cc3F)nc2cc1OC [Example 42, 2-(4-(6,7-dimethoxyquinoxalin-2-yl)-3-fluorophenyl)-N-(5-(1-(trifluoromethyl)cyclopropyl)isoxazol-3-yl)acetamide] | < 10 |
| COc1cc2ncc(-c3ccc(CC(=O)Nc4cc(C(C)(C)C)on4)c(F)c3)nc2cc1OC [Example 43, N-(5-(tert-butyl)isoxazol-3-yl)-2-(4-(6,7-dimethoxyquinoxalin-2-yl)-2-fluorophenyl)acetamide] | < 10 |
| CN(C)C(=O)c1cc2cc(-c3ccc(CC(=O)Nc4cc(C(C)(C)C)on4)cc3)cnc2[nH]1 [Example 49, 5-(4-(2-((5-(tert-butyl)isoxazol-3-yl)amino)-2-oxoethyl)phenyl)-N,N-dimethyl-1H-pyrrolo[2,3-b]pyridine-2-carboxamide] | < 10 |
| Cc1n[nH]c2ncc(-c3ccc(CC(=O)Nc4cc(C(C)(C)C)on4)c(F)c3)cc12 [Example 51, N-(5-(tert-butyl)isoxazol-3-yl)-2-(2-fluoro-4-(3-methyl-1H-pyrazolo[3,4-b]pyridin-5-yl)phenyl)acetamide] | < 10 |
| CN(C)Cc1cc2cc(-c3ccc(CC(=O)Nc4cc(C(C)(C)C)on4)cc3)cnc2[nH]1 [Example 52, N-(5-(tert-butyl)isoxazol-3-yl)-2-(4-(2-((dimethylamino)methyl)-1H-pyrrolo[2,3-b]pyridin-5-yl)phenyl)acetamide] | < 10 |
| COc1n[nH]c2ncc(-c3ccc(CC(=O)Nc4cc(C5(C(F)(F)F)CC5)on4)c(F)c3)cc12 [Example 53, 2-(2-fluoro-4-(3-methoxy-1H-pyrazolo[3,4-b]pyridin-5-yl)phenyl)-N-(5-(1-(trifluoromethyl)cyclopropyl)isoxazol-3-yl)acetamide] | < 10 |
| CC(C)(C)c1cc(NC(=O)Cc2ccc(-c3cnc4[nH]nc(CO)c4c3)cc2F)no1 [Example 55, N-(5-(tert-butyl)isoxazol-3-yl)-2-(2-fluoro-4-(3-(hydroxymethyl)-1H-pyrazolo[3,4-b]pyridin-5-yl)phenyl)acetamide] | < 10 |
| O=C(Cc1ccc(-c2cnc3[nH]ncc3c2)cc1F)Nc1cc(C2(C(F)(F)F)CCC2)on1 [Example 56, 2-(2-Fluoro-4-(1H-pyrazolo[3,4-b]pyridin-5-yl)phenyl)-N-(5-(1-(trifluoromethyl)cyclobutyl)isoxazol-3-yl)acetamide] | < 10 |
| CNCc1n[nH]c2ncc(-c3ccc(CC(=O)Nc4cc(C(C)(C)C)on4)c(F)c3)cc12 [Example 57, N-(5-(tert-butyl)isoxazol-3-yl)-2-(2-fluoro-4-(3-((methylamino)methyl)-1H-pyrazolo[3,4-b]pyridin-5-yl)phenyl)acetamide] | < 10 |
| CN(C)Cc1n[nH]c2ncc(-c3ccc(CC(=O)Nc4cc(C(C)(C)C)on4)c(F)c3)cc12 [Example 58, N-(5-(tert-butyl)isoxazol-3-yl)-2-(4-(3-((dimethylamino)methyl)-1H-pyrazolo[3,4-b]pyridin-5-yl)-2-fluorophenyl)acetamide] | < 10 |
| CN(C)c1n[nH]c2ncc(-c3ccc(CC(=O)Nc4cc(C5(C(F)(F)F)CC5)on4)c(F)c3)cc12 [Example 61, 2-(4-(3-(dimethylamino)-1H-pyrazolo[3,4-b]pyridin-5-yl)-2-fluorophenyl)-N-(5-(1-(trifluoromethyl)cyclopropyl)isoxazol-3-yl)acetamide] | < 10 |
| CC(C)(C)c1cc(NC(=O)Cc2ccc(-c3cnc4[nH]ccc4c3)cc2)on1 [Example 71, 2-(4-(1H-pyrrolo[2,3-b]pyridin-5-yl)phenyl)-N-(3-(tert-butyl)isoxazol-5-yl)acetamide] | < 10 |
| COc1cc2ncc(-c3ccc(CC(=O)Nc4cc(C5(C(F)(F)F)CC5)no4)cc3)nc2cc1OC [Example 72, 2-(4-(6,7-dimethoxyquinoxalin-2-yl)phenyl)-N-(3-(1-(trifluoromethyl)cyclopropyl)isoxazol-5-yl)acetamide] | < 10 |
| COc1cc2ncc(-c3ccc(CC(=O)Nc4cc(C(C)(C)C)no4)cc3)nc2cc1OC [Example 73, N-(3-(tert-butyl)isoxazol-5-yl)-2-(4-(6,7-dimethoxyquinoxalin-2-yl)phenyl)acetamide] | < 10 |
| COc1cc2nc(-c3ccc(CC(=O)Nc4cc(C5(C(F)(F)F)CC5)on4)c(F)c3)cnc2cc1OC1CNC1 [Example 89, 2-(4-(6-(azetidin-3-yloxy)-7-methoxyquinoxalin-2-yl)-2-fluorophenyl)-N-(5-(1-(trifluoromethyl)cyclopropyl)isoxazol-3-yl)acetamide] | < 10 |

Second part, the compound after the results:

| IC50 [nM] | Structure (SMILES) |
| --- | --- |
| < 10 | COc1n[nH]c2ncc(-c3ccc(CC(=O)Nc4cc(C(C)(C)C(F)(F)F)on4)cc3)cc12 [Example 35, 2-(4-(3-methoxy-1H-pyrazolo[3,4-b]pyridin-5-yl)phenyl)-N-(5-(1,1,1-trifluoro-2-methylpropan-2-yl)isoxazol-3-yl)acetamide] |
| < 10 | CC(C)(C)c1cc(NC(=O)Cc2ccc(-c3cnc4[nH]nc(C#N)c4c3)cc2)no1 [Example 37, N-(5-(tert-butyl)isoxazol-3-yl)-2-(4-(3-cyano-1H-pyrazolo[3,4-b]pyridin-5-yl)phenyl)acetamide] |
| < 10 | CC(C)(C)c1cc(NC(=O)Cc2ccc(-c3cnc4[nH]nc(Cl)c4c3)cc2)no1 [Example 38, N-(5-(tert-butyl)isoxazol-3-yl)-2-(4-(3-chloro-1H-pyrazolo[3,4-b]pyridin-5-yl)phenyl)acetamide] |
| < 10 | CCOc1n[nH]c2ncc(-c3ccc(CC(=O)Nc4cc(C(C)(C)C(F)(F)F)on4)cc3)cc12 [Example 39, 2-(4-(3-ethoxy-1H-pyrazolo[3,4-b]pyridin-5-yl)phenyl)-N-(5-(1,1,1-trifluoro-2-methylpropan-2-yl)isoxazol-3-yl)acetamide] |
| < 10 | Cc1n[nH]c2ncc(-c3ccc(CC(=O)Nc4cc(C(C)(C)C)on4)cc3)cc12 [Example 40, N-(5-(tert-butyl)isoxazol-3-yl)-2-(4-(3-methyl-1H-pyrazolo[3,4-b]pyridin-5-yl)phenyl)acetamide] |
| < 10 | CC(C)(c1cc(NC(=O)Cc2ccc(-c3cnc4[nH]nnc4c3)cc2)no1)C(F)(F)F [Example 41, 2-(4-(3H-[1,2,3]triazolo[4,5-b]pyridin-6-yl)phenyl)-N-(5-(1,1,1-trifluoro-2-methylpropan-2-yl)isoxazol-3-yl)acetamide] |
| < 10 | CC(C)(c1cc(NC(=O)Cc2ccc(-c3cnc4[nH]ncc4c3)cc2)no1)C(F)(F)F [Example 44, 2-(4-(1H-pyrazolo[3,4-b]pyridin-5-yl)phenyl)-N-(5-(1,1,1-trifluoro-2-methylpropan-2-yl)isoxazol-3-yl)acetamide] |
| < 10 | CN(C)C(=O)c1n[nH]c2ncc(-c3ccc(CC(=O)Nc4cc(C(C)(C)C)on4)cc3)cc12 [Example 45, 5-(4-(2-((5-(tert-butyl)isoxazol-3-yl)amino)-2-oxoethyl)phenyl)-N,N-dimethyl-1H-pyrazolo[3,4-b]pyridine-3-carboxamide] |
| < 10 | COCCOc1n[nH]c2ncc(-c3ccc(CC(=O)Nc4cc(C(C)(C)C(F)(F)F)on4)cc3)cc12 [Example 47, 2-(4-(3-(2-methoxyethoxy)-1H-pyrazolo[3,4-b]pyridin-5-yl)phenyl)-N-(5-(1,1,1-trifluoro-2-methylpropan-2-yl)isoxazol-3-yl)acetamide] |
| < 10 | CC(C)(c1cc(NC(=O)Cc2ccc(-c3cnc4[nH]nc(OC5CCNCC5)c4c3)cc2)no1)C(F)(F)F [Example 48, 2-(4-(3-(piperidin-4-yloxy)-1H-pyrazolo[3,4-b]pyridin-5-yl)phenyl)-N-(5-(1,1,1-trifluoro-2-methylpropan-2-yl)isoxazol-3-yl)acetamide formate salt] |
| < 10 | CC(C)(C)c1cc(NC(=O)Cc2ccc(-c3cnc4[nH]c(CO)cc4c3)cc2)no1 [Example 50, N-(5-(tert-butyl)isoxazol-3-yl)-2-(4-(2-(hydroxymethyl)-1H-pyrrolo[2,3-b]pyridin-5-yl)phenyl)acetamide] |
| 10 to 20 | CNCc1c[nH]c2ncc(-c3ccc(CC(=O)Nc4cc(C(C)(C)C)on4)cc3)cc12 [Example 54, N-(5-(tert-butyl)isoxazol-3-yl)-2-(4-(3-((methylamino)methyl)-1H-pyrrolo[2,3-b]pyridin-5-yl)phenyl)acetamide] |
| < 10 | CN(C)Cc1c[nH]c2ncc(-c3ccc(CC(=O)Nc4cc(C(C)(C)C)on4)cc3)cc12 [Example 59, N-(5-(tert-butyl)isoxazol-3-yl)-2-(4-(3-((dimethylamino)methyl)-1H-pyrrolo[2,3-b]pyridin-5-yl)phenyl)acetamide formate salt] |
| < 10 | CC(C)(C)c1cc(NC(=O)Cc2ccc(-c3cnc4[nH]cc(CO)c4c3)cc2)no1 [Example 60, N-(5-(tert-butyl)isoxazol-3-yl)-2-(4-(3-(hydroxymethyl)-1H-pyrrolo[2,3-b]pyridin-5-yl)phenyl)acetamide] |

What follows are compounds tested against KIT kinase (Homo sapiens (Human), UniProt P10721) (assay: Competition binding assay (Kd), KIT). Details: competition binding assay.
Sequence of KIT kinase (P10721 26-976): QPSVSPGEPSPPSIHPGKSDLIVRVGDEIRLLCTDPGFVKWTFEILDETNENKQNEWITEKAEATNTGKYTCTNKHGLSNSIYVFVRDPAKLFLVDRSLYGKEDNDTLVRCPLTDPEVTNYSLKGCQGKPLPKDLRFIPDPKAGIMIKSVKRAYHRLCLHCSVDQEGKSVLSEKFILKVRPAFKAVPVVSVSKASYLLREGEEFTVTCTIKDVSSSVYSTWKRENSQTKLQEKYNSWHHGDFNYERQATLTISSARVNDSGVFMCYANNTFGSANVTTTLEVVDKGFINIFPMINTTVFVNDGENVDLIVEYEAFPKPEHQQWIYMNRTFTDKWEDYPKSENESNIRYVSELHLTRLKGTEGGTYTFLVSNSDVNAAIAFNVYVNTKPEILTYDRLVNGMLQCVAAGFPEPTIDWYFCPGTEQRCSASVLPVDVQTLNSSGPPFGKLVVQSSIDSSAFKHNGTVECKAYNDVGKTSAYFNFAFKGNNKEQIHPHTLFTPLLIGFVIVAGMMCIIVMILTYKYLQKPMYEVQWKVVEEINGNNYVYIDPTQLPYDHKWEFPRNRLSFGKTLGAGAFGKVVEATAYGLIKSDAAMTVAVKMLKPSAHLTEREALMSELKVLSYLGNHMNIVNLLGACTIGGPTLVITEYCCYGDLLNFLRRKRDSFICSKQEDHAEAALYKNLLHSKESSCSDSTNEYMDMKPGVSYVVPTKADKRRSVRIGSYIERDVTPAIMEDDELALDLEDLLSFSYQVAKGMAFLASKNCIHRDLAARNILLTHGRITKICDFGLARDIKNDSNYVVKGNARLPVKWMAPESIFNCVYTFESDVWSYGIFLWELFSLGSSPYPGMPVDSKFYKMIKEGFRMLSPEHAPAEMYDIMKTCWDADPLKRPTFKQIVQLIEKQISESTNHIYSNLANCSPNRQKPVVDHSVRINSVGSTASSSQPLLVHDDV
Outline: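 Kinase, as T7 phage fusion or HEK-293-expressed DNA-tagged protein, competed off immobilised ligand beads by test compound (eleven-point threefold dilutions, from 100× DMSO stocks). Eluted kinase quantified by qPCR to derive Kd; DMSO used as control.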

| Kd [nM] | Structure (SMILES) |
| --- | --- |
| < 5 | O=C(Cc1ccc(-c2cnc3[nH]ncc3c2)cc1)Nc1cc(C2(C(F)(F)F)CC2)on1 [Example 15, 2-(4-(1H-pyrazolo[3,4-b]pyridin-5-yl)phenyl)-N-(5-(1-(trifluoromethyl)cyclopropyl)isoxazol-3-yl)acetamide] |
| < 5 | O=C(Cc1ccc(-c2cnc3[nH]ccc3c2)cc1)Nc1cc(C2(C(F)(F)F)CC2)on1 [Example 18, 2-(4-(1H-pyrrolo[2,3-b]pyridin-5-yl)phenyl)-N-(5-(1-(trifluoromethyl)cyclopropyl)isoxazol-3-yl)acetamide] |
| 5 to 20 | COc1cc2nc(-c3ccc(CC(=O)Nc4cc(C5(C(F)(F)F)CC5)on4)c(F)c3)cnc2cc1OC1CNC1 [Example 89, 2-(4-(6-(azetidin-3-yloxy)-7-methoxyquinoxalin-2-yl)-2-fluorophenyl)-N-(5-(1-(trifluoromethyl)cyclopropyl)isoxazol-3-yl)acetamide] |
